Test results: a melting point compilation (Tetko et al.; mined from patent text by program, amines drawn as free bases though some values may be those of a salt)

Which melting point does the source give for `CN(C)C=Cc1nc2ccc(F)cc2c(=O)n1-c1cccnc1Cl` here?
Its melting point is 197 to 200 °C.

For `O=[N+]([O-])c1ccc(S(=O)(=O)Nc2cccc(F)c2)c([N+](=O)[O-])c1`, which melting point is on record?
Its melting point is 172 to 173 °C.

Which melting point does the source give for `NS(=O)(=O)c1ccc(NN=C2C(=O)Nc3ccc(C(=O)NCCn4ccnc4)cc32)cc1` here?
Its melting point is greater than 230 °C.

For `C=CN(C(=O)CCl)c1c(CC)cccc1CC`, which melting point is on record?
The melting point was 45 to 47 °C.

For `CC1(C)OC(=S)N(c2cc(F)cc(C(F)(F)F)c2)c2ccccc21`, which melting point is on record?
The melting point was 204 to 206 °C.

With `Cc1cc(C)c(CC(=O)NNC(=O)OC(C)(C)C)c(C)c1` as the molecule, how does the melting point read?
Its melting point is 138 to 140 °C.

With `O=C=Nc1c(Cl)cc(Cl)cc1Cl` as the molecule, how does the melting point read?
The melting point was 65 to 66 °C.

With `CCC(CC)n1ncn(-c2ccc(N3CCN(c4ccc5c(=O)n([C@H](C)[C@](O)(Cn6cncn6)c6ccc(F)cc6F)cnc5c4)CC3)cc2)c1=O` as the molecule, how does the melting point read?
The melting point was 208 to 210 °C.

Which melting point does the source give for `CCCCCCCCCCCCCCCCCCOc1cc(OCCOCCOCCOCC)cc(C(=O)O)c1` here?
Its melting point is 38 to 40 °C.

Which melting point does the source give for `CCCC1=C(c2ccc(F)c(F)c2)C(=NO)CC1` here?
The melting point was 136 to 137 °C.

Which melting point does the source give for `Cc1sc(-c2ccccc2)nc1COc1cc(COc2ncccc2C#N)on1` here?
Its melting point is 135 to 136 °C.

For `Oc1ccc(-c2cc(S)n3nccc3n2)cc1O`, which melting point is on record?
Its melting point is greater than 280 °C.

With `CC1(C)CC2(NC(=O)NC2=O)c2cc(Cl)ccc2O1` (configuration not stated) as the molecule, how does the melting point read?
The melting point was 281 to 283 °C.

For `C=CCNc1nc(NC(=O)NC(C)(C)C)c2cc([N+](=O)[O-])ccc2n1`, which melting point is on record?
Its melting point is 200 to 201 °C.

For `CC(=O)C(=Cc1ccccc1)c1ccncc1`, which melting point is on record?
The melting point was 101 to 103 °C.

With `COc1cc(C(=O)N(C(C)C)C2CCCCC2)ccc1Oc1cc(OC)c(OC)c(OC)c1` as the molecule, how does the melting point read?
Its melting point is 126 to 128 °C.

For `CCONC(=O)C(=O)NN`, which melting point is on record?
The melting point was 182 °C.

Which melting point does the source give for `CC(C)Oc1ccc2c(c1)Oc1cccc(F)c1S2(=O)=O` here?
Its melting point is 151 to 152 °C.

For `c1c(NC23CC4CC(CC(C4)C2)C3)nc(NC23CC4CC(CC(C4)C2)C3)nc1N1CCNCC1`, which melting point is on record?
The melting point was 168 to 175 °C.

Which melting point does the source give for `CC(C)(C)c1cc(C(c2cc(C(C)(C)C)c(O)c(C(C)(C)C)c2)c2ccco2)cc(C(C)(C)C)c1O` here?
The melting point was 158 to 159 °C.

Which melting point does the source give for `CCCn1c(-n2nc(-c3c(-c4ccccc4)nn4ccccc34)ccc2=O)cc(=O)n(CC(=O)OC)c1=O` here?
Its melting point is 191 to 195 °C.

With `CCC(C)c1cc(Cl)cc(Cl)c1OCC(=O)NCCCCNC(=O)OC(C)(C)C` (configuration not stated) as the molecule, how does the melting point read?
Its melting point is 50 °C.

Which melting point does the source give for `O=C(c1cccnc1)c1cccs1` here?
Its melting point is 90 to 91.5 °C.

For `CCOC(=O)c1cn(C2CCCCC2)c2cc(Br)ccc2c1=O`, which melting point is on record?
Its melting point is 129 to 133 °C.

With `Cn1ccn(Cc2ccc([N+](=O)[O-])cc2)c1=S` as the molecule, how does the melting point read?
Its melting point is 162 to 168 °C.

For `CCOC(=O)C(C)(C)Oc1ccc(-c2ccc(CNC(=O)c3cc(Cl)ccc3OC)cc2)cc1`, which melting point is on record?
The melting point was less than 20 °C.

With `Cc1cccc(CCOc2ccc([N+](=O)[O-])cc2)n1` as the molecule, how does the melting point read?
The melting point was 61 to 62 °C.

For `O=c1ccc(-c2c(-c3ccccc3)nn3ccccc23)nn1[C@H]1CC[C@@H](C(=O)O)CC1`, which melting point is on record?
The melting point was 193 to 195 °C.

Which melting point does the source give for `Cc1[nH]c(/C=C2\C(=O)Nc3cc(NC(=O)c4c[nH]cc(-c5ccc(F)cc5)c4=O)ccc32)c(C)c1CC(=O)N1CCOCC1` here?
The melting point was 235 °C.

Which melting point does the source give for `CC1CCc2c(F)c(F)cc3c(=O)[nH]c(=O)n1c23` (configuration not stated) here?
The melting point was 212 to 214 °C.

For `C/C=C/c1ccc2c(NCc3ccc(NC(=O)C4CCN(Cc5ccccc5)CC4)cc3)nc(N(C)C)nc2c1`, which melting point is on record?
Its melting point is 154 °C.

Which melting point does the source give for `CN1C(=O)[C@H](NC(=O)c2cc3cc(Cl)ccc3[nH]2)N=C(c2ccccc2)c2ccccc21` here?
The melting point was 160 to 164 °C.

Which melting point does the source give for `Cn1cc(Br)cc(Nc2ccccn2)c1=O` here?
Its melting point is 153 to 154 °C.

With `Fc1cc(-c2cc(C(F)(F)F)n3ncc(-c4ccncc4)c3n2)ccc1C(F)(F)F` as the molecule, how does the melting point read?
The melting point was 262 °C.

For `CCOC(=O)NC(=S)Nc1cc(Br)ccn1`, which melting point is on record?
The melting point was 107 to 110 °C.

With `CCN(CC)c1ccc2nc3c4ccccc4c(=Nc4ncc(Cl)cc4Cl)cc-3oc2c1` as the molecule, how does the melting point read?
The melting point was 192 to 193 °C.

With `N#Cc1ncc(NCCO)nc1Br` as the molecule, how does the melting point read?
Its melting point is 158 to 160 °C.

Which melting point does the source give for `Cc1ccc2cccc(OCc3c(Cl)ccc(N(C)C(=O)CNC(=O)/C=C/c4ccc(NC(=O)c5cnccn5)nc4)c3Cl)c2n1` here?
Its melting point is 220 to 231 °C.

For `COC(=S)NCc1cn(-c2ccc(-n3ccc(C=O)c3)cc2)nn1`, which melting point is on record?
Its melting point is 160 to 162 °C.

Which melting point does the source give for `CCOCc1nc2c(N)nc3ccccc3c2n1CC1(C(N)=O)CCCCC1` here?
The melting point was 221 to 223 °C.

Which melting point does the source give for `c1ccc2c(Cn3c(-c4ccc5c(c4)OCO5)nc4ccccc43)cccc2c1` here?
The melting point was 166 to 168 °C.

With `Cc1nc2c3c(ccn2c1C)C(O)C(O)C(c1ccsc1)N3` (configuration not stated) as the molecule, how does the melting point read?
Its melting point is 134 to 138 °C.

Which melting point does the source give for `O=C(Oc1ccc(F)cc1)c1ccccc1` here?
Its melting point is 48 to 50 °C.

Which melting point does the source give for `CC(C)(O)c1ccc(C2CCNCC2)c(F)c1` here?
The melting point was 151 °C.

For `Cc1ccc(OCC(=O)N(Cc2nc(-c3ccc(C)cc3)no2)C(C)C)cc1`, which melting point is on record?
Its melting point is 142 to 143 °C.

With `COC(=O)c1ccc(O)c(OC2CCCC2)c1` as the molecule, how does the melting point read?
The melting point was 73 to 75 °C.

With `COc1cc(O)c(C=O)cc1C(C)(C)C` as the molecule, how does the melting point read?
Its melting point is 75 to 78 °C.

With `NC(=O)c1cncnc1` as the molecule, how does the melting point read?
Its melting point is 175 to 178 °C.

For `NC(CSc1ccccc1N)=NO`, which melting point is on record?
The melting point was 80 °C.

For `N#CC(=C1CCN(Cc2ccccc2)CC1)c1ccc(F)cc1`, which melting point is on record?
The melting point was 81 to 83 °C.

With `CC(=O)NC[C@H]1CN(c2ccc(N3CCN(CCCO)CC3)c(F)c2)C(=O)O1` as the molecule, how does the melting point read?
Its melting point is 154 to 156 °C.

With `COc1ccc(CN2C(=O)C(C)(c3cc(CN4CCCCC4=O)ccc3Cl)c3cc(Cl)ccc32)c(OC)c1` (configuration not stated) as the molecule, how does the melting point read?
The melting point was 72 °C.

Which melting point does the source give for `COc1ccc2nc(SCc3nccc(N4CCOCC4)c3Cl)[nH]c2n1` here?
The melting point was 210 °C.

With `CCNC(=O)c1ccc(N2CCN(Cc3ccc4c(c3)NC(=O)C(C)O4)CC2)c(Cl)c1` (configuration not stated) as the molecule, how does the melting point read?
Its melting point is 239 to 243 °C.

For `O=C(O)c1csc(-c2ccc(OCC(F)(F)C(F)F)cc2)n1`, which melting point is on record?
The melting point was 170 to 173 °C.

With `CN(C)c1ccc(I)nn1` as the molecule, how does the melting point read?
Its melting point is 135 °C.

For `O=C1N(Cc2ncccc2C(F)(F)F)c2ccccc2C12COc1c2ccc2c1OCCO2` (configuration not stated), which melting point is on record?
Its melting point is 206 to 207 °C.

With `COc1ccc(CCOc2ccnc(-c3cccc(C(=O)O)c3)n2)cc1OC` as the molecule, how does the melting point read?
The melting point was 193 to 194 °C.

Which melting point does the source give for `CC#CCn1c(=N)sc2cc(OC(F)(F)F)ccc21` here?
The melting point was 116 °C.

With `CCCCCn1c2ccc(C(=O)O)cc2c2ccc(SC)cc21` as the molecule, how does the melting point read?
The melting point was 211 to 212 °C.

With `CC(C)CC1(CCCCCl)C(=O)Nc2ccccc21` (configuration not stated) as the molecule, how does the melting point read?
Its melting point is 124 to 125 °C.

Which melting point does the source give for `O=C1N(C2CCCCC2)CC(CCl)C1(c1ccccc1)c1ccccc1` (configuration not stated) here?
The melting point was 124 to 126 °C.

With `Cc1nc(C#N)sc1-c1ccncc1` as the molecule, how does the melting point read?
Its melting point is 169 to 170 °C.

With `C=C(C)CSCC(C)C1CC=C2C3=C(CCC21C)C1(C)CCC(O)C(C)(C)C1CC3` (configuration not stated) as the molecule, how does the melting point read?
Its melting point is 128 to 132 °C.

For `CN(C)C1(c2ccccc2)CCC(NC2c3ccccc3-c3ccccc32)CC1` (configuration not stated), which melting point is on record?
The melting point was 202 to 205 °C.

For `CC1(C)CCC(C)(C)C2=C1CC(C(=O)Oc1ccc(C(=O)O)cc1)C2`, which melting point is on record?
Its melting point is 194 to 195 °C.

Which melting point does the source give for `O=C(CCCCCl)c1ccc2c(c1)Cc1cc(C(=O)CCCCCl)ccc1S2` here?
The melting point was 85 to 86.5 °C.

Which melting point does the source give for `Brc1cnc2c(Br)cncc2c1` here?
The melting point was 186 to 188 °C.

Which melting point does the source give for `Clc1cc(Cl)c(C#C[Si](c2ccccc2)(c2ccccc2)c2ccccc2)c(Cl)c1` here?
Its melting point is 115 to 120 °C.

For `Cn1nc(-c2nc(C=O)c(Cl)cc2F)c(Cl)c1OC(F)F`, which melting point is on record?
Its melting point is 120 to 121 °C.

With `CC1(C)COC(=O)N1c1nc(-c2ccc([N+](=O)[O-])cc2)cs1` as the molecule, how does the melting point read?
Its melting point is 176 to 179 °C.

Which melting point does the source give for `COc1nc2cc(C)c(C)c(N)c2nc1OC` here?
The melting point was 166 to 167 °C.
